Test results from patent US20240299334A1, “PHARMACEUTICAL COMPOSITION OF NAPHTHALENE DERIVATIVES AS MULTI-TARGETED THERAPEUTIC AGENTS FOR THE TREATMENT OF ALZHEIMER'S DISEASE” (CENTRO DE NEUROCIENCIAS DE CUBA, CNEURO, priority 2020, published 2024).

How the values were obtained:
AChE = molecular target: T1, AChE (Mus musculus, UniProt P21836); experiment: AChE activity ex vivo in brain homogenates (Ellman), acute ESC model; design: species or system mice; conditions: soluble fraction of brain homogenates, vs ESC group, 3 p<0.05, donepezil p<0.01
T1 construct: the resulting clear supernatants were used as enzyme sources; from tissue; host or cells: mouse whole brain, supernatant of the homogenate (10,000 x G)
T1 sequence (P21836 32-614): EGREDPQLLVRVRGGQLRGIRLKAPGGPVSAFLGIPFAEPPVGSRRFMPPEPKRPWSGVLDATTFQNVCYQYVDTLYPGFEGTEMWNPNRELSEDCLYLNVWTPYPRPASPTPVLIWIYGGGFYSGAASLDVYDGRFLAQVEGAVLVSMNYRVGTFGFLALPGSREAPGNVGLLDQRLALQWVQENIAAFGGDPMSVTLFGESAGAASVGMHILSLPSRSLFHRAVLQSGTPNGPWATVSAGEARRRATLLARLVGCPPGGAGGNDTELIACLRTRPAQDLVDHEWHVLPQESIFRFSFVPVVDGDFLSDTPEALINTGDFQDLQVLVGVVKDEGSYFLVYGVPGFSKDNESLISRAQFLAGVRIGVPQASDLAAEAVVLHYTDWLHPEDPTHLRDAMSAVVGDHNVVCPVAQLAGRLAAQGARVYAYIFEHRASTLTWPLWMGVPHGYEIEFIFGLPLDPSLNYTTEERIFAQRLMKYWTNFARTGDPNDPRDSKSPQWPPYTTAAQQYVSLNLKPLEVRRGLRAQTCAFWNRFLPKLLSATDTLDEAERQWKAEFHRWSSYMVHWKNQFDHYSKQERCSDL
Experimental: Briefly the procedure was as follows; at the end of the behavioral experiments, the mice were anesthetized and decapitated to quickly remove the brains, which were placed on an ice-cold plate. They were weighed and homogenized (1/10, w/v) in cold 10 mmol/L Tris-HCl buffer, pH 7.2, containing 160 mmol/L sucrose. The homogenates were centrifuged at 10,000×G for 10 minutes at 4° C., and the resulting clear supernatants were used as enzyme sources, which were aliquoted (n=10 per group) and stored at −20° C. The assay was performed in 96-well microtiter plates using Ellman's reagent (DTNB 10 mmol/L), 50 μL homogenate and 10 μL Acetylcholine iodide (AChl, 20 mmol/L) (final volume 200 μL). The absorbance of the yellow hydrolyzate of the 5-thio-2-nitrobenzoic acid dianion (molar extinction coefficient: 13 700 mol/L^−1 cm^−1), was measured at 412 nm, for 20 minutes with an interval of 1 minute. AChE activity was performed in triplicate and was expressed in nmol of hydrolyzed Achl per minute per mg of protein.
All data are expressed as the mean±standard error of the mean (SEM). The comparison of the cholinesterase activity values was carried out by means of a one-way analysis of variance, followed by the Turkey post-hoc test. Statistical analysis was performed using GraphPadPrism version 5 (GraphPad Software, Inc., San Diego, USA).

[1] = test system: memory loss induced with the chronic use of scopolamine; experiment: Morris water maze, chronic ESC model; type: in vivo, mice
Experimental: Male C57BL/6 mice (20-25 g), supplied by the National Center for the Laboratory Animals Production (CENPALAB, Cuba) were used. During the experiment, the animals received adlibitum water and standard diet supplied by CENPALAB. All procedures were carried out in accordance with the European Commission guidelines for the use and care of laboratory animals and approved by the Committee for the Research Animals Care. The minimum number of animals and duration of observations required to obtain consistent data was used.
At the end of the adaptation period, the animals were randomly distributed according to their body weights in five experimental groups of 12 animals each. For the induction of cognitive deficit, ESC (Sigma Aldrich) was used, which was dissolved in physiological saline and administered daily intraperitoneally (ip) at a dose of 1.5 mg/kg for 2 weeks, in the morning (Park J H, et al. In J Mol Neurosci. 2016; 59 (4): 579-589). Compound 3 was prepared as a suspension, in 0.5% soluble starch (Merck Millipore), and administered orally by intragastric cannula at a daily dose of 0.1, 1, 10 mg/kg of body weight […]. The experimental groups were: […]
Morris Water Maze (MWM): Analogous to Example 2, the two-day MWM test was used to determine long-term spatial memory. […] In this way, long-term spatial memory was determined by the quotient of the escape latency values D2T1/D1V6. […]

SH-SY5Y cells = experiment: Neuroprotection against glutamate-induced excitotoxic damage (MTT); conditions: 7.5 and 15 μmol/L; 24 h pre-treatment, then 60 mmol/L glutamate 24 h; p<0.05
Experimental: In addition, gentamicin (100 μg/mL) was added, then called complete medium (CM). […] The medium was changed every two days and the cells were subcultured every five days by trypsinization at a density of 4-5×10^6 cells/75 cm^2 flask for experimental work and/or subculture of a new generation of cells for later use.
Once the cell density was known, they were seeded in a 96-well culture plate (200 μL in each well) at a concentration of 80×10^4 cells/well.
Cell viability. MTT assays: Cell viability was measured through formazan blue products obtained from the enzymatic transformation of MTT (3-(4,5-dimethyl-2-thiazolyl)-2,5-diphenyl-2Htetrazoliumbromide) by mitochondrial dehydrogenases, which are active only in viable cells. […] Then 100 μL of isobutylalcohol (SDS 10%, 2-butanol 50%, 0.25 μL HCl 2 mmol/L) was added to each well to solubilize the formazan crystals, and the optical density of each well was measured before 30 minutes at 570 nm in a Clariostar spectrophotometer (BMG Labtech). The correction of the OD values was carried out at 690 nm. Three replications were carried out for each experiment. The results were expressed as the percentage of optical density of each experimental variant in relation to the Optical density obtained for the group of cells not treated with glutamate.

CSC(=S)NCCNC(=O)CCC(=O)Nc1cccc2ccccc12 [compound 3, methyl(2-{[4-(1-naphthylamino)-4-oxobutanoyl]amino}ethyl)dithiocarbamate]
AChE activity ex vivo (AChE): significantly reduced
maximum effect dose ([1]; MWM, chronic ESC model): 1 mg/kg
ratio of first escape latency with hidden platform (T7) and last test with visible platform (T6) ([1]; compound 3 1 and 10 mg/kg oral daily, ESC 1.5 mg/kg daily, 2 weeks): significantly decreased compared to the ESC group
neuronal death generated by glutamate (MTT viability) (SH-SY5Y cells): significantly decreased
